Measured values published in the supplement of paper PMC11208160.

Test: recombinant UMI read abundance after kanamycin selection (control-corrected) (log10(CPM+1)); higher = more efficient recombination; extreme values may be limits of the assay; sequences stand for … in AGTGCAGAGAAAATCGGCCAGTTTTCTCTGCCTGCAGTCCGCATGCCGTGGGACCCCTTGGGTTCTAACCTGTTGCCTAGATTTATGCAGCGGACTGCCTTTCTCCCAAAGTGATAAACCGG…AGGTTGGTTTCACT; site = the 11-nt donor
Protocol: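 Pooled E. coli donor-specificity screen for the IS621 bridge recombinase. Each library member carries a reprogrammed 11-nt donor and a full-length LE bridge RNA expressed in cis from the natural promoter, with a paired donor-binding loop (8-nt LDG + 4-nt RDG) and a target-binding loop fixed to T5. It is co-electroporated with a T5 target plasmid; recombinase is induced with 0.07 mM IPTG and recombinants are selected on kanamycin. UMIs are counted as CPM, averaged over two biological replicates and corrected by the unselected control. Molecule = full bridge RNA written as DNA, built from the T5 scaffold: LDG = donor specificity nt 1-8, RDG = reverse complement of nt 8-11.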
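Note: IS621 bridge recombinase in Escherichia coli cells against a fixed T5 target plasmid.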

| Sequence | recombinant UMI read abundance (log10) |
| --- | --- |
| AGCTCAGCATGGACCGGTTTTCCCGGTAATCCGTATTTGGG (site AGCTAAGCTCC) | 0.0351 |
| AGCTCAGCATGGACCGGTTTTCCCGGTAATCCGTATTTGGG (site AGCTCAACTCC) | 0 |
| AGCTCAGCATGGACCGGTTTTCCCGGTAATCCGTATTTGGG (site AGCTCACCTCC) | 0.00337 |
| AGCTCAGCATGGACCGGTTTTCCCGGTAATCCGTATTTGGG (site AGCTCAGCTAC) | 0.00707 |
| AGCTCAGCATGGACCGGTTTTCCCGGTAATCCGTATTTGGG (site AGCTCAGCTCA) | 0.0167 |
| AGCTCAGCATGGACCGGTTTTCCCGGTAATCCGTATTTGGG (site AGCTCAGCTCC) | 0.0108 |
| AGCTCAGCATGGACCGGTTTTCCCGGTAATCCGTATTTGGG (site AGCTCAGCTCG) | 0.0246 |
| AGCTCAGCATGGACCGGTTTTCCCGGTAATCCGTATTTGGG (site AGCTCAGCTCT) | 0.337 |
| AGCTCAGCATGGACCGGTTTTCCCGGTAATCCGTATTTGGG (site AGCTCAGCTGC) | 0 |
| AGCTCAGCATGGACCGGTTTTCCCGGTAATCCGTATTTGGG (site AGCTCAGCTTC) | 0.0127 |
| AGCTCAGCATGGACCGGTTTTCCCGGTAATCCGTATTTGGG (site AGCTCATCTCC) | 0.0384 |
| AGCTCAGCATGGACCGGTTTTCCCGGTAATCCGTATTTGGG (site AGCTCCGCTCC) | 0.0147 |
| AGCTCAGCATGGACCGGTTTTCCCGGTAATCCGTATTTGGG (site AGCTCGGCTCC) | 0.0329 |
| AGCTCAGCATGGACCGGTTTTCCCGGTAATCCGTATTTGGG (site AGCTCTGCTCC) | 0.0255 |
| AGCTCAGCATGGACCGGTTTTCCCGGTAATCCGTATTTGGG (site AGCTGAGCTCC) | 0 |
| AGCTCAGCATGGACCGGTTTTCCCGGTAATCCGTATTTGGG (site AGCTTAGCTCC) | 0.0288 |
| AGCTCAGCATGGACCGGTTTTCCCGGTAATCCGTATTTGGG (site AGGTCAGCTCC) | 0.00833 |
| AGCTCAGCATGGACCGGTTTTCCCGGTAATCCGTATTTGGG (site AGTTCAGCTCC) | 0.0207 |

| Sequence | recombinant UMI read abundance (log10) |
| --- | --- |
| AGCTCAGCATGGACCGGTTTTCCCGGTAATCCGTATTTGGG (site ATCTCAGCTCC) | 0.019 |
| AGCTCAGCATGGACCGGTTTTCCCGGTAATCCGTATTTGGG (site CGCTCAGCTCC) | 0.299 |
| AGCTCAGCATGGACCGGTTTTCCCGGTAATCCGTATTTGGG (site GGCTCAGCTCC) | 0.0255 |
| AGCTCAGCATGGACCGGTTTTCCCGGTAATCCGTATTTGGG (site TGCTCAGCTCC) | 0.366 |
| AGCTCAGCATGGACCGGTTTTCCCGGTAATCCGTATTTGGT (site AGCTCAGCTAC) | 1.27 |
| AGCTCAGCATGGACCGGTTTTCCCGGTAATCCGTATTTGGT (site AGCTCAGCTCC) | 0.0126 |
| AGCTCAGCATGGACCGGTTTTCCCGGTAATCCGTATTTGGT (site AGCTCAGCTGC) | 0 |
| AGCTCAGCATGGACCGGTTTTCCCGGTAATCCGTATTTGGT (site AGCTCAGCTTC) | 0.0112 |
| AGCTCCGCATGGACCGGTTTTCCCGGTAATCCGTATTTGGG (site AGCTCAGCTCC) | 0.00775 |
| AGCTCCGCATGGACCGGTTTTCCCGGTAATCCGTATTTGGG (site AGCTCCGCTCC) | 0.211 |
| AGCTCCGCATGGACCGGTTTTCCCGGTAATCCGTATTTGGG (site AGCTCGGCTCC) | 0.0125 |
| AGCTCCGCATGGACCGGTTTTCCCGGTAATCCGTATTTGGG (site AGCTCTGCTCC) | 0.00972 |
| AGCTGGGCATGGACCGGTTTTCCCGGTAATCCGTATTTGTA (site AGCTGGGCTTA) | 2.76 |
| AGCTTAGCATGGACCGGTTTTCCCGGTAATCCGTATTTGCC (site AGCTTAGCTGG) | 0 |
| AGCTTCCCATGGACCGGTTTTCCCGGTAATCCGTATTTGTG (site AGATTCCCTCA) | 0.114 |
| AGCTTCCCATGGACCGGTTTTCCCGGTAATCCGTATTTGTG (site AGCTTCCCTCA) | 0.00566 |
| AGCTTCCCATGGACCGGTTTTCCCGGTAATCCGTATTTGTG (site AGGTTCCCTCA) | 0.00784 |
| AGCTTCCCATGGACCGGTTTTCCCGGTAATCCGTATTTGTG (site AGTTTCCCTCA) | 0.0209 |
